Source: patent US9868935B2, “Composition and method of stem cells for preservation of cardiac tissue” (CRIOESTAMINAL, SAÚDE E TECNOLOGIA, SA., priority 2012, dated 2018)

Columns and labels:
[1] = test system: CD34+ cells; assay: Antagonist pretreatment and LPA-induced CD34+ cell survival in hypoxia (Annexin V/PI FACS); type: cell-based, human; settings: LPA 100 μM alone (+LPA, no antagonist); hypoxia 24 h
Description: FIG. 5—LPA induces CD34+ cell survival mainly through peroxisome proliferator-activator receptor (PPAR). Cells were cultured in serum free medium with LPA. Cells were pretreated with Rho kinase inhibitor (Y-2762, 50 μM), mitogen-activated protein kinase (MAPK) inhibitor (PD98059, 60 μM), LPA1- and LPA3-specific inhibitor (Ki16425, 10 μM), or peroxisome proliferator-activator receptor g (PPARg) inhibitor (GW9662, 50 μM) for 1 hour before hypoxia and cell medium containing LPA (100 μM) for 24 h. Cells without any pretreatment and cultured in serum free medium with or without LPA, in hypoxia for 24 h, were used as positive and negative controls, respectively. Results are average±SEM (n=3-6). * Denote statistical significance: *P<0.05, **P<0.01, […].
The biological roles of LPA are diverse and include developmental, physiological, and pathophysiological effects (Lin, M. E., D. R. Herr, and J. Chun, Lysophosphatidic acid (LPA) receptors: signaling properties and disease relevance. Prostaglandins Other Lipid Mediat, 2010. 91(3-4): p. 130-8). To date up to five LPA receptors (LPARs) have been identified: LPA1-LPA5 (Choi, J. W., et al., LPA receptors: subtypes and biological actions. Annu Rev Pharmacol Toxicol, 2010. 50: p. 157-86). The receptors are G protein-coupled receptors (GPCRs) and their presence can be found in multiple tissues. LPA1, LPA2 and LPA3 are widely expressed in most tissues (Ishii, I., et al., Functional comparisons of the lysophosphatidic acid receptors, LP(A1)/VZG-1/EDG-2, LP(A2)/EDG-4, and LP(A3)/EDG-7 in neuronal cell lines using a retrovirus expression system. Mol Pharmacol, 2000. 58(5): p. 895-902). LP4 is expressed in specific organs, such as the pancreas, ovaries and thymus (Lee, C. W., et al., LPA(4)/GPR23 is a lysophosphatidic acid (LPA) receptor utilizing G(s)-, G(q)/G(i)-mediated calcium signaling and G(12/13)-mediated Rho activation. J Biol Chem, 2007. 282(7): p. 4310-7). LPA5 is expressed at low levels in multiple tissues (Lee, C. W., et al., GPR92 as a new G12/13- and Gq-coupled lysophosphatidic acid receptor that increases cAMP, LPA5. J Biol Chem, 2006. 281(33): p. 23589-97). To identify the receptor that is mediating the pro-survival effect of LPA (100 μM), was used Ki16425 (10 μM), an LPA1- and LPA3-specific antagonist, and GW9662 (50 μM), an antagonist of peroxisome proliferator-activator receptor γ (PPAR γ). Studies indicate that LPA has a high affinity by this last receptor (McIntyre, T. M., et al., Identification of an intracellular receptor for lysophosphatidic acid (LPA): LPA is a transcellular PPARgamma agonist. Proc Natl Acad Sci USA, 2003. 100(1): p. 131-6; Gustin, C., M. Van Steenbrugge, and M. Raes, LPA modulates monocyte migration directly and via LPA-stimulated endothelial cells. Am J Physiol Cell Physiol, 2008. 295(4): p. C905-14). This approach was complemented, by inhibiting downstream targets of the receptors including Rho kinase and mitogen-activated protein kinase (MAPK) using Y-2762 (50 μM) and PD98059 (60 μM) antagonists, respectively. It is known that all LPARs couple with and activate G proteins, which in turn activate MAPK (LPA1, LPA2, LPA3 and LPA4) and Rho kinase (LPA1, LPA2, LPA4 and LPA5) (Choi, J. W., et al., LPA receptors: subtypes and biological actions. Annu Rev Pharmacol Toxicol, 2010. 50: p. 157-86). Cells were treated for 1 h in X-Vivo medium containing a specific antagonist followed by culture under hypoxia conditions for 24 h. Cell survival was assessed by FACS analysis after Annexin V/PI staining. […] The number of viable cells decreased from 77% (+LPA) to 67% (P<0.01, n=19). […] Because the two signaling pathways are downstream targets of different LPARs (see above), this might indicate different contributions of LPARs in the survival of CD34+ cells.

[2] = target: T1, peroxisome proliferator-activator receptor γ (PPAR γ) (Homo sapiens, UniProt P37231); settings: literature studies; cited from earlier work
T1 sequence (P37231 1-505): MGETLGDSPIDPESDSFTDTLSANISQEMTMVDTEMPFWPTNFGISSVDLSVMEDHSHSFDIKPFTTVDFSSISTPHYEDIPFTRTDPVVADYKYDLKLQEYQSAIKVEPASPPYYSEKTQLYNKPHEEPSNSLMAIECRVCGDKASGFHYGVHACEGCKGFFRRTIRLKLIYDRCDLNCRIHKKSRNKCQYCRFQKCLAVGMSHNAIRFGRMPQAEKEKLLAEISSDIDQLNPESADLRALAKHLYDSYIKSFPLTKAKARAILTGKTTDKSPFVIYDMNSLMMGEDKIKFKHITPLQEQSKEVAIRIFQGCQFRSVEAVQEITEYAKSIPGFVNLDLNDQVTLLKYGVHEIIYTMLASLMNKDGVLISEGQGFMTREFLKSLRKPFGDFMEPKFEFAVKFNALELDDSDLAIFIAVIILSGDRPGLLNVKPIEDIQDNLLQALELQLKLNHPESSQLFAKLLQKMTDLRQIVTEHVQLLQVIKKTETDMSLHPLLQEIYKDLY

Substance: lysophosphatidic acid [LPA]
- number of viable cells [1]: ~77%
- affinity for PPARγ [2]: high affinity
